This passage reports IC50 results from US7981893B2, “Heteroaryl compounds, compositions thereof, and methods of treatment therewith” (Signal Pharmaceuticals, LLC, priority 2006, dated 2011).

T1 sequence (Q04759 whole entry): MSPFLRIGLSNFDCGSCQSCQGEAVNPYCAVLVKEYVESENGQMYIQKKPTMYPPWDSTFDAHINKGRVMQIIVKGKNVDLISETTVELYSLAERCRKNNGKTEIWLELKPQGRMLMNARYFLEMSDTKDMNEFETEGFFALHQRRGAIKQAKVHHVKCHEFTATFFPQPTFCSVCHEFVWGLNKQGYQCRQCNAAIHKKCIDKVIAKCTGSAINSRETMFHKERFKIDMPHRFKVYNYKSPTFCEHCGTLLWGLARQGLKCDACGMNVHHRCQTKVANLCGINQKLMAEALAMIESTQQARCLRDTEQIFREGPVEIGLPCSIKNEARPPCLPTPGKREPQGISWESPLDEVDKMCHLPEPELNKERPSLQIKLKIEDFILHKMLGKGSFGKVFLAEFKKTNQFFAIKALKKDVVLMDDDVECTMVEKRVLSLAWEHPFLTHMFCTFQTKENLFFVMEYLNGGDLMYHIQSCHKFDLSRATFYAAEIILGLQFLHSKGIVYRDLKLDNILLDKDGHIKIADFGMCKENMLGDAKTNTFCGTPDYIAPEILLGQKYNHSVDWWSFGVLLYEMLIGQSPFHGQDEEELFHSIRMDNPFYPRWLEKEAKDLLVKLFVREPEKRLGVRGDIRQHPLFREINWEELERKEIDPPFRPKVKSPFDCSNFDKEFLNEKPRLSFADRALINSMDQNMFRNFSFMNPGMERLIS

The assay has as its target T1, PKCθ (Homo sapiens, UniProt Q04759).
T1 construct: purchased Invitrogen
The experiment in a line: PKCθ IMAP Assay. In kind it is biochemical. The conditions noted are these: IMAP fluorescence polarization screening assay, 35 μM ATP. As for the experimental part: The following is an example of an assay that can be used to determine the PKCθ inhibitory activity of a test compound. Reagents are prepared as follows:
Assay Buffer: 50 mM HEPES (pH 7.6), 10 mM MgCl, 0.1 mM EDTA, 5 mM MBP, 0.01% Triton, 1 mM DTT, 0.05 mg/ml phosphatidyl serine, 0.05 mg/ml diacylglycerol.
The final concentration of PKCθ (Invitrogen) is 0.5 nM. The final concentration of substrate (FAM-AKRRRLSSLRA) (Molecular Devices) is 100 nM. The final concentration of ATP in the reaction is 35 μM. The final concentration of DMSO in the reaction is 2.5%.
Enzyme is kept in 5 μl aliquots and stored at −80° C. prior to use. Test compound is allowed to pre-incubate with enzyme for 45 minutes before the reactions is initiated.
The reaction mixture consists of: 5 μl of test compound in 10% DMSO, 5 μl of 400 nM substrate (FAM-AKRRRLSSLRA), 5 μl of […] PKCθ, and 5 μl of 140 μM ATP (ATP is added to the reaction mixture last to initiate the reaction) per well.
The reaction is allowed to proceed for 60 minutes and is terminated by adding 30 μl per well of 90% Progressive A buffer/10% Progressive B buffer and a 1:400 dilution of binding beeds (Molecular Devices).
The reaction is given a binding incubation time of at least 30 minutes prior to reading the fluorescence polarization signal on an Analyst reader (the following detector settings are used: fluorescein excitation-485 nm, fluorescein emission-530 nm, fluorescein dichroic-505 nm).
(Polarisation of emitted light reports the rotation of a fluorescent probe.)
As usually defined, the IC50 is the point on the concentration scale where inhibition reaches its midpoint. Low readings indicate inhibition by little substance, high ones a need for much substance. `COc1ccccc1-c1cnc2[nH]c(=O)n(C(C)C)c2n1` [Compound 38, 1-isopropyl-6-(2-methoxyphenyl)-1H-imidazo[4,5-b]pyrazin-2(3H)-one] came in with an IC50 greater than 30 µM.

`COc1ccc(C(C)C)cc1-c1ccc2[nH]c(=O)n([C@H](CO)C(C)C)c2n1` [Compound 39, (S)-3-(1-hydroxy-3-methylbutan-2-yl)-5-(5-isopropyl-2-methoxyphenyl)-1H-imidazo[4,5-b]pyridin-2(3H)-one] yielded an IC50 greater than 30 µM.

As for `CC(c1ccccc1)n1c(=O)[nH]c2ncc(-c3cccc4ncccc34)nc21` (stereo not shown) [Compound 42, 1-(1-phenylethyl)-6-(quinolin-5-yl)-1H-imidazo[4,5-b]pyrazin-2(3H)-one], the IC50 is 0.1 to 5 µM.

Take `O=c1[nH]c2ncc(-c3cccc4ncccc34)nc2n1C(c1ccccc1)c1ccccc1` [Compound 43, 1-benzhydryl-6-(quinolin-5-yl)-1H-imidazo[4,5-b]pyrazin-2(3H)-one]: the IC50 was greater than 30 µM.

Consider `CC[C@@H](c1ccccc1)n1c(=O)[nH]c2ncc(-c3cccc4ncccc34)nc21` [Compound 44, (S)-1-(1-phenylpropyl)-6-(quinolin-5-yl)-1H-imidazo[4,5-b]pyrazin-2(3H)-one], for which the IC50 is greater than 30 µM.

With `COc1ccc(C(C)C)cc1-c1cnc2[nH]c(=O)n(C3CCCOC3)c2n1` (stereo not shown) [Compound 46, 6-(5-isopropyl-2-methoxyphenyl)-1-(tetrahydro-2H-pyran-3-yl)-1H-imidazo[4,5-b]pyrazin-2(3H)-one], the concentration for half-maximal inhibition (IC50) is 10.1 to 20 µM.

Compound `C[C@H](c1ccccc1)n1c(=O)n(C)c2ncc(-c3cccc4ncccc34)nc21` [Compound 48, (R)-1-methyl-3-(1-phenylethyl)-5-(quinolin-5-yl)-1H-imidazo[4,5-b]pyrazin-2(3H)-one] yielded an IC50 greater than 30 µM.

With `C[C@@H](c1ccccc1)n1c(=O)n(C)c2ncc(-c3cccc4ncccc34)nc21` [Compound 49, (S)-1-methyl-3-(1-phenylethyl)-5-(quinolin-5-yl)-1H-imidazo[4,5-b]pyrazin-2(3H)-one], the IC50 was greater than 30 µM.

In the case of `C[C@H](c1ccccc1)n1c(=O)[nH]c2ncc(-c3cccc4ncccc34)cc21` [Compound 62, (R)-1-(1-phenylethyl)-6-(quinolin-5-yl)-1H-imidazo[4,5-b]pyridin-2(3H)-one], the IC50 was greater than 30 µM.

Regarding `CC(c1ccccc1)n1c(=O)[nH]c2ncc(-c3cccc4ncccc34)cc21` (stereo not shown) [Compound 63, 1-(1-phenylethyl)-6-(quinolin-5-yl)-1H-imidazo[4,5-b]pyridin-2(3H)-one], the IC50 is greater than 30 µM.

Regarding `CC(c1ccc(S(C)(=O)=O)cc1)n1c(=O)[nH]c2ncc(-c3cccc4ncccc34)nc21` (stereo not shown) [Compound 66, 1-(1-(4-(methylsulfonyl)phenyl)ethyl)-6-(quinolin-5-yl)-1H-imidazo[4,5-b]pyrazin-2(3H)-one], the IC50 is greater than 30 µM.

Take `CC(c1ccncc1)n1c(=O)[nH]c2ncc(-c3cccc4ncccc34)nc21` (stereo not shown) [Compound 67, 1-(1-(pyridin-4-yl)ethyl)-6-(quinolin-5-yl)-1H-imidazo[4,5-b]pyrazin-2(3H)-one]: the IC50 was 20.1 to 30 µM.

`O=c1[nH]c2ncc(-c3cccc4ncccc34)nc2n1CC1CCNCC1` [Compound 74, 1-(piperidin-4-ylmethyl)-6-(quinolin-5-yl)-1H-imidazo[4,5-b]pyrazin-2(3H)-one]: the IC50 is greater than 30 µM.

In the case of `CC(c1ccccn1)n1c(=O)[nH]c2ncc(-c3cccc4ncccc34)nc21` (stereo not shown) [Compound 75, 1-(1-(pyridin-2-yl)ethyl)-6-(quinolin-5-yl)-1H-imidazo[4,5-b]pyrazin-2(3H)-one], the half-maximal inhibitory concentration (IC50) is 10.1 to 20 µM.

`CC(c1cccnc1)n1c(=O)[nH]c2ncc(-c3cccc4ncccc34)nc21` (stereo not shown) [Compound 76, 1-(1-(pyridin-3-yl)ethyl)-6-(quinolin-5-yl)-1H-imidazo[4,5-b]pyrazin-2(3H)-one]: the IC50 fell in the range of 5.1 to 10 µM.

With `O=c1[nH]c2ncc(-c3cccc4ncccc34)nc2n1C1CCC(CO)CC1` (stereo not shown) [Compound 77, 1-((1s,4s)-4-(hydroxymethyl)cyclohexyl)-6-(quinolin-5-yl)-1H-imidazo[4,5-b]pyrazin-2(3H)-one], the IC50 fell in the range of 20.1 to 30 µM.
